Measured values published in patent US20250186520A1, “ONCOLYTIC VIRUS COMPOSITIONS AND METHODS FOR THE TREATMENT OF CANCER” (priority 2020, published 2025).

Legend:
Gli36ΔEGFR cells = test: NK cell cytotoxicity (51Cr release) against TMZ-pretreated cells; type: cell-based, human
Method: TMZ, which is an imidazotetrazine that is converted to a compound capable of alkylating DNA, interferes with DNA replication and leading to cytotoxicity in proliferating cells, and has been in clinical trials for treating GBM. To detect whether OV-Cmab-CCL5 enhanced TMZ function for treating GBM, the combination therapy with OV-Cmab-CCL5 and TMZ in vivo and in vitro was performed. Gli36ΔEGFR cells were treated with 1 μM TMZ overnight, and the pretreated cells were ^51Cr-labeled and used as target cells. These cells were then incubated with 5 μg/ml Cmab-hCCL5 or vehicle for 30 min. The effector NK cells and target cells were then co-cultured at the ratios of 40:1, 20:1, and 10:1 for 4 hours and assayed for cytotoxicity. […] This function was also detected as induced by the supernatants from OV-Cmab-hCCL5-infected Gli36ΔEGFR cells. Consistent data were collected.

[1] = biological target: T1, EGFR (wtEGFR U251T2 and EGFRvIII U87ΔEGFR GBM cells) (Homo sapiens, UniProt P00533); test: EGFR binding assay and CCL5 expression assay by flow cytometry (anti-human Fc / anti-human CCL5)
T1 construct: U251T2 GBM cells, which express wild type EGFR (wtEGFR), U87ΔEGFR GBM cells, which express EGFRvIII; endogenous in cells; host or cells: U251T2 (wtEGFR) and U87ΔEGFR (EGFRvIII) human GBM cells
Method: (§1) U251T2, U87ΔEGFR, and A4780 cells were pre-blocked with 2% BSA and incubated with 1, 5, or 10 μg/ml purified Cmab-hCCL5 or 1, 5, or 10 μg/ml human IgG1 isotype control for 30 min. Murine CT2A-hEGFR cells were pre-blocked with 2% BSA and then incubated with 1, 5, or 10 μg/ml purified Cmab-mCCL5 or 1, 5, or 10 μg/ml human IgG1 isotype control for 30 min. After incubation, all cells were washed twice, and human cell lines were stained with APC-conjugated anti-human Fc (Jackson ImmunoResearch, cat #209-605-098) or APC-conjugated anti-human CCL5 (Biolegend, cat #515506, 149103) antibodies, whereas the murine CT2A-hEGFR cells were stained with APC-conjugated anti-human Fc or PE-conjugated anti-mouse CCL5 antibodies, for 20 min. The stained cells were analyzed using a Fortessa X20 flow cytometer (BD Biosciences).

[2] = test system: EGFR (wtEGFR U251T2 and EGFRvIII U87ΔEGFR GBM cells); test: as above; conditions: protein purified from CHO cells
Method: as §1

EGFR^− A2780 cells = test: EGFR binding assay by flow cytometry on EGFR-negative cells; parameters: species or system human; conditions: protein purified from CHO cells; vs IgG1 isotype control
Method: as §1

[3] = test system: human NK cells, macrophages, CD4^+ T cells, and CD8^+ T cells; test: Transwell cell migration assay, human immune cells; type: cell-based; conditions: protein purified from CHO cells; vs IgG1 isotype control
Method: The migration capability of NK cells, T cells, and macrophages was determined using transwell chambers (Corning). Serum-starved NK cells, T cells or macrophages (10^6/well) were seeded to an upper chamber. Recombinant human (rh) CCL5, recombinant mouse (rm) CCL5, purified Cmab-hCCL5 or Cmab-mCCL5, or the supernatant containing Cmab-hCCL5 or Cmab-mCCL5 secreted from OV-Cmab-hCCL5- or OV-Cmab-mCCL5-infected U251T2 GBM cells was added to the lower chamber. The chambers were incubated at 37° C. in 5% CO2 for 12 h. Cells that migrated to the lower face of the porous membrane in the lower chamber were counted. For the T cells and NK cells, the pore size of the transwell membrane used in this assay was 3 μm as previously described (61,62). For the macrophages, the pore size of the transwell membrane used in this assay was […] as previously described (63).

[4] = test system: U251T2 (wtEGFR), GBM30, Gli36ΔEGFR (EGFRvIII) GBM cells; test: NK cell ADCC, 51Cr release assay, EGFR+ targets; type: cell-based, human; conditions: purified protein; wtEGFR and EGFRvIII tumor cells; vs IgG1 isotype control
Method: (§2) NK cell cytotoxicity was evaluated as previously described (13,64,65). Briefly, U251T2, GBM30, Gli36ΔEGFR, and CT2A-hEGFR cells were used as target cells. The target cells were labeled with ^51Cr for 1 h, followed by incubation with 5 μg/ml or 10 μg/ml of the Cmab-hCCL5 fusion protein or IgG1 isotype control for 30 min. The labeled target cells preincubated with the Cmab-hCCL5 fusion protein or IgG1 were co-cultured with isolated human primary NK cells at different effector:target ratios at 37° C. for 4 h. Release of ^51Cr was measured as counts per minute (cpm) with a MicroBeta(2) microplate radiometric counter (Perkin Elmer, Waltham, MA). […] The cell lysis percentages were calculated using the standard formula: 100×(cpm experimental release−cpm spontaneous release)/(cpm maximal release−cpm spontaneous release). […] The expression of CD69 and granzyme B, NK cell activation markers, were measured after 6-hour co-culture of NK cells and GBM30 cells with 5 μg/ml or 10 μg/ml of Cmab-hCCL5 at a ratio of 1:1 with a flow cytometer after the cells were stained with the anti-CD56 (BD, cat #557919) and anti-CD69 (BD, cat #562883) or anti-granzyme B (BD, cat #563388) antibodies. Following similar procedures, mouse CD69 was measured by an anti-CD69 (BD, cat #564683) antibody, and NK cells were marked by an anti-NKp46 (Biolegend, cat #137618) antibody.

[5] = test system: human NK cells co-cultured with GBM30 cells; test: NK cell activation assay (CD69, granzyme B by flow cytometry); type: cell-based; conditions: purified protein
Method: as §2

GBM30 cells = test: Flow cytometry-based phagocytosis (ADCP) assay, human macrophages; type: cell-based; conditions: purified protein; vs IgG1 isotype control or vehicle
Method: For the phagocytosis assay of primary human macrophages, GBM30 cells stained with CFSE (Thermo Fisher, cat #C34554) were used as target cells. Human macrophages and target cells were co-cultured at a ratio of 1:2 for 6 hours with 5 μg/ml or 10 μg/ml of the Cmab-hCCL5 fusion protein or IgG1 isotype control in a humidified, 5% CO2 incubator at 37° C. in ultra-low-attachment 96-well U-bottom plates (Corning) in serum-free 1640 media (Life Technologies). The co-cultured cells were harvested by centrifuging at 400×g for 5 min at 4° C. and stained with an anti-human CD45 antibody (Biolegend, cat #368516) to identify macrophages. All flow cytometry data were collected using a Fortessa X20 flow cytometer (BD Biosciences). Phagocytosis was measured as the number of CD45^+CFSE^+ macrophages, quantified as a percentage of the total CD45^+ cells.

[6] = test system: human macrophages co-cultured with GBM30 cells; test: Quantitative PCR of human macrophage cytokine genes; type: cell-based; conditions: vs IgG1 isotype control
Method: For evaluating the effect of Cmab-hCCL5 on mRNA levels of typical human macrophage cytokine genes, human macrophages and GBM30 cells were co-cultured at a ratio of 1:1 for 6 hours with or without 5 μg/ml Cmab-hCCL5. The macrophages were stained with anti-human CD45 antibody and sorted using an Aria Fusion flow cytometer (BD Biosciences). The total RNA was extracted from the sorted macrophages for measuring the mRNA levels of human IL1B, IL6, IL12A, and NOS2 genes with their corresponding primers. 18s rRNA was used as an internal control.

`Cn1nnc2c(C(N)=O)ncn2c1=O` [TMZ, Temozolomide, reference compound] was tested, and the NK cell cytotoxicity (Gli36ΔEGFR cells; 1 μM TMZ overnight pre-treatment alone) was “enhanced NK cell cytotoxicity”.
With “Cmab-hCCL5: bispecific knob-into-hole human IgG1 Fc fusion protein: cetuximab scFv arm and human CCL5 arm” the “secretion of cetuximab or CCL5, comparison of Cmab-CCL5 and reverse-order CCL5-Cmab” value ([1]; FIGS. 14C, 14D: flow cytometry on U251T2 with anti-Fc / anti-hCCL5) was “no difference”, the “binding to surface-expressed EGFR (anti-Fc and anti-CCL5 antibodies)” value ([1]; protein produced by OV-Cmab-hCCL5-infected U251T2 GBM cells) was “confirmed to bind to surface-expressed EGFR” and the “CCL5 on cell surface (anti-CCL5 antibody)” value ([2]; EGFR^+ cells) was “detected CCL5 on EGFR^+ cell surfaces”. The “binding to tumor cells (anti-human Fc antibody)” value ([2]; U251T2 (wtEGFR) and U87ΔEGFR (EGFRvIII) cells) was “selectively bound to tumor cells expressing wtEGFR or EGFRvIII”, the “binding to EGFR^− A2780 cells (anti-human Fc antibody)” value (EGFR^− A2780 cells) was “indistinguishable from that of IgG1 isotype control” and the “migration of human NK cells, macrophages, CD4^+ and CD8^+ T cells” value [3] was “dose-dependent increase in the migration”. The “NK cell ADCC” value [4] was “significantly induced NK cell ADCC”, the “CD69 expression on NK cells” value ([5]; 6 hours, vs IgG1 isotype control or GBM30 cells alone) was “significantly increased the expression of CD69” and the “granzyme B expression in NK cells” value ([5]; relative to controls) was “increased granzyme B expression”. For the same compound, the “ADCP against GBM30 cells by human macrophages” value (GBM30 cells) was “induced a significantly higher level of ADCP”, the “cytokine expression in human macrophages (real-time RT-PCR)” value [6] was “significantly increased IL-1B, IL-6, IL-12, and NOS2 expression” and the NK cell cytotoxicity (Gli36ΔEGFR cells; 1 μM TMZ pre-treatment plus 5 μg/ml Cmab-hCCL5, vs either treatment alone) was “significantly higher degree of NK cell cytotoxicity”.
